From US10342804B2, “Steroid compound for use in the treatment of hepatic encephalopathy” (Umecrine Cognition AB, priority 2014, dated 2019) come the findings set out here.

Assay [1] deals with T1, human α5β3γ2L GABAA receptors (Homo sapiens, UniProt P28472+P31644).
T1 construct: expressed in transfected cells; host or cells: HEK-293, permanently transfected
Nature of the assay: Whole-cell voltage-clamp electrophysiology, HEK-293 cells expressing α5β3γ2L GABAA receptors. Format: cell-based. The conditions noted are these: α5β3γ2L expressing cells. The protocol:
(§1) For electrophysiology measurements the Dynaflow® system with the Resolve chip was used (Cellectricon, Göteborg, Sweden). HEK-293 cells were permanently transfected with vectors including the human CMV promoter for constitutive expression of the human α5, β3, and γ2L GABAA receptor subunits (α5β3γ2L) or the human α1, β2, and γ2L GABAA receptor subunits (α1β2γ2L). The cell lines used were selected for good reactivity to GABA and to THDOC. Before measurements cells were incubated for 15 min at 37° C. in 95% air+5% CO2 in extracellular solution (EC) containing the following: 137 mM NaCl, 5.0 mM KCl, 1.0 mM CaCl2, 1.2 mM MgCl2, 10 mM HEPES, and 10 mM glucose, 0.1% DMSO pH 7.4. Thereafter, detached cells were added to the EC solution in the Dynaflow chip bath.
(§2) Whole-cell voltage-clamp recordings were made at room temperature (21-23° C., −17 mV with compensation for liquid junction potential as in Haage et al., 2002; Neher, 1992). Command pulses were generate and data collected by PClamp 9.0 software, DigiData 1322A converter, and AxonPatch 200B (Axon Instruments, Foster City, Calif.). Patch electrodes (2-6 MΩ) were filled with intracellular solution (IC) including: 140 mM Cs-gluconate, 3.0 mM NaCl, 1.2 mM MgCl2, 10 mM HEPES, 1.0 mM EGTA, 2 mM Mg-ATP, 0.1% DMSO, pH 7.2.
(§3) THDOC and 3α-ethynyl-3β-hydroxyandrostan-17-one oxime were dissolved in dimethyl sulfoxide (DMSO) and thereafter diluted with EC solution to include 0.1% DMSO.
(§4) Different protocols were used for different electrophysiology measurements. As α1β2γ2L-GABAA receptors in vivo are present within the synapse a condition resembling that situation, a short application (40 ms) of a high GABA concentration (30 μM), was used. Contrary, α5β3γ2L-GABAA receptors are present extrasynaptically, thus the conditions used were long exposures (6 s) to a low GABA concentration (0.3 μM). The EC75 concentration of THDOC was used, i.e. 100 nM with studies of α1β2γ2L and 200 nM when α5β3γ2L expressing cells were evaluated. With both cell types a pre-exposure with THDOC or THDOC plus 3α-ethynyl-3β-hydroxyandrostan-17-one oxime was used before application of GABA.
(§5) Steroid effects in presence of GABA were normalized to controls in order to avoid the effects of inter- and intracellular variation in the measured parameters, each cell was used as its own control and the area under the curve (AUC) was analyzed.

Assay [2] deals with T2, human α1β2γ2L GABAA receptors (Homo sapiens, UniProt P14867+P47870).
T2 construct: expressed in transfected cells; host or cells: HEK-293, permanently transfected
Nature of the assay: Whole-cell voltage-clamp electrophysiology, HEK-293 cells expressing α1β2γ2L GABAA receptors. Format: cell-based. The conditions noted are these: α1β2γ2L expressing cells. The protocol:
as §1, §2, §3, §4, §5

T2 sequence (P14867 28-456): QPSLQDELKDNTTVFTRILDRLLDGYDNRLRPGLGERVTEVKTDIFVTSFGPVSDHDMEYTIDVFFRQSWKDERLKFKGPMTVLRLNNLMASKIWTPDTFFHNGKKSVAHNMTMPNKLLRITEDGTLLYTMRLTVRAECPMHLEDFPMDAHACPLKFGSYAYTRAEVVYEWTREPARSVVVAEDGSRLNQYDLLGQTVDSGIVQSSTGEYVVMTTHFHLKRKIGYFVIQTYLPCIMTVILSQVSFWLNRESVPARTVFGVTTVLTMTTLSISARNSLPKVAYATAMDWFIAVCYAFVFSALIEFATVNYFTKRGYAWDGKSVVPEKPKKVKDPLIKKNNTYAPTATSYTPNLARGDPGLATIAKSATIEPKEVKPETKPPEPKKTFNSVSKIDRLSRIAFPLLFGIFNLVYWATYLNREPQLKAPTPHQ
T2 sequence (P47870 25-512 limits assumed): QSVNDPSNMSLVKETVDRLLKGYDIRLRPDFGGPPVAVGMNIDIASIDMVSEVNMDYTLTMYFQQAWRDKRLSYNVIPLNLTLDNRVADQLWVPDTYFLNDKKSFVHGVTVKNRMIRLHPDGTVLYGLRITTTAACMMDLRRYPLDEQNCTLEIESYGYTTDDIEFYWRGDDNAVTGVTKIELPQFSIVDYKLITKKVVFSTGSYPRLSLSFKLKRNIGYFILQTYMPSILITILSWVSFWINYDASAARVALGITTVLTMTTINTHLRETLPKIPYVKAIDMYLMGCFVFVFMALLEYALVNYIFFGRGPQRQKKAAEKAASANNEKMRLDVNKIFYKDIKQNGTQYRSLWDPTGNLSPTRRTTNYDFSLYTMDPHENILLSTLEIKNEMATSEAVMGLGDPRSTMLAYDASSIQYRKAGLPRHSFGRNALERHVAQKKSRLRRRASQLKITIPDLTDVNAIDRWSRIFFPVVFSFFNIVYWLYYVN
T2 sequence (P18507 40-475 partner): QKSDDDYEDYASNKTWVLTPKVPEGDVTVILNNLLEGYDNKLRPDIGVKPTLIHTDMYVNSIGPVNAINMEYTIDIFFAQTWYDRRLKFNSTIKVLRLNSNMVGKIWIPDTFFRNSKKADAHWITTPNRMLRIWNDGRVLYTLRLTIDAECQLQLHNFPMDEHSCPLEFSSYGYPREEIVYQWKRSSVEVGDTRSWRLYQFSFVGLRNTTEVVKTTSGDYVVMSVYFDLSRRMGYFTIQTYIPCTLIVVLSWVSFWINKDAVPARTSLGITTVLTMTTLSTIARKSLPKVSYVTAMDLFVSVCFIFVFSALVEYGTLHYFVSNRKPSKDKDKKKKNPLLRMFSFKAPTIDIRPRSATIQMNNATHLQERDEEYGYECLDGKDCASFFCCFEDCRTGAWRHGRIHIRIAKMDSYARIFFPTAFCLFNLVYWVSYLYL
T1 sequence (P31644 32-462): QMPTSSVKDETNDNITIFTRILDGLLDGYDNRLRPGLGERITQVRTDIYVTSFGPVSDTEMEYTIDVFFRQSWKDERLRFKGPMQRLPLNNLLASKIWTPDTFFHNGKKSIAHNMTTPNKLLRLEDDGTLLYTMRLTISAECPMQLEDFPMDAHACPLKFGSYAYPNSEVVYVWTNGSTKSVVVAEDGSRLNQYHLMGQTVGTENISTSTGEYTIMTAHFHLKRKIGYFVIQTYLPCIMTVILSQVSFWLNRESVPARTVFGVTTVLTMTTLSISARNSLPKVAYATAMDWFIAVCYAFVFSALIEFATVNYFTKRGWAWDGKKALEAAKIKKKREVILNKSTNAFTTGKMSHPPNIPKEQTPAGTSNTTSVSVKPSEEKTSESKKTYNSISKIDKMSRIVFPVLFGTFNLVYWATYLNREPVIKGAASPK
T1 sequence (P28472 26-473): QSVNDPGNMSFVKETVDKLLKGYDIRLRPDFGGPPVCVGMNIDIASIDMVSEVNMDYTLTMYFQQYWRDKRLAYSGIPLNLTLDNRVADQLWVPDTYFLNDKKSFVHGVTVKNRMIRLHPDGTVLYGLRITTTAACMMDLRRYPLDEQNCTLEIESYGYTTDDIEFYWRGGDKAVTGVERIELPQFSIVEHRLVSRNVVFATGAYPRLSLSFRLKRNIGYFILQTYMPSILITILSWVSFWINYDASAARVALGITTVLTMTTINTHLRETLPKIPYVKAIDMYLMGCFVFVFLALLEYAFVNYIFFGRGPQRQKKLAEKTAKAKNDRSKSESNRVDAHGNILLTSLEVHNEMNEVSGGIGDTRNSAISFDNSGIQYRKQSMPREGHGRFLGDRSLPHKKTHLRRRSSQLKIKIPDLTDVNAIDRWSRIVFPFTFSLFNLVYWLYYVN
T1 sequence (P18507 40-475 partner): as the sequence (P18507 40-475 partner) above

Consider `C[C@]12CC[C@@H](O)C[C@H]1CC[C@@H]1[C@@H]2CC[C@]2(C)[C@@H](C(=O)CO)CC[C@@H]12` [THDOC, tetrahydrodeoxycorticosterone, reference compound], for which the “EC75 concentration of THDOC” value in assay [1] is on record as 200 nM; in assay [2], 100 nM.
